In experiment [1] the target is HIV-1 protease (Human immunodeficiency virus type 1 group M subtype B, UniProt P04585). As to the kind of experiment: biochemical.
Experiment [2] deals with HIV-1 (strain IIIB). The experiment can be described thus: microbe, parasite or virus in culture. Format: cell-based. The following applies: lower line of each compound's entry, read-out: IC50 (MT-4 cells).
[3] abbreviates: HIV-1 protease, upper line of each compound's entry, read-out: Ki (enzyme).
The mark [4] stands for this setting: Human immunodeficiency virus 1, 120 h, MT4 cells infected with HIV-1 strain IIIB, 5 days.

Structures are written as SMILES. Read-outs that look alike come from different tables or passages of the source.

By Ki is commonly meant a dissociation constant, usually derived from enzyme kinetics or from competition with a known ligand. For orientation: IC50 means the concentration that inhibits the measured activity by half. For `Nc1cccc(S(=O)(=O)N(C[C@@H](O)[C@H](Cc2ccccc2)NC(=O)O[C@H]2CO[C@H]3OCC[C@H]32)OC2CCOCC2)c1` [Compound 147, (3R,3aS,6aR)hexahydrofuro[2,3-b]furan-3-yl 3-[[(3-aminophenyl)sulfonyl](tetrahydro-2H-pyran-4-yloxy)amino]-1-benzyl-2-hydroxypropylcarbamate], the inhibition constant (Ki) in experiment [1] (setting [3]) is less than 1 nM. The IC50 in experiment [2] (Human immunodeficiency virus 1, IIIB, MT4, 120 h, […]) was not above 100 nM.
Regarding `CCC(CC)ON(C[C@@H](O)[C@H](Cc1ccccc1)NC(=O)O[C@H]1CO[C@H]2OCC[C@H]21)S(=O)(=O)c1ccc2c(c1)OCO2` [Example 162, (3R,3aS,6aR)hexahydrofuro[2,3-b]furan-3-yl(1S,2R)-3-[(1,3-benzodioxol-5-ylsulfonyl)(1-ethylpropoxy)amino]-1-benzyl-2-hydroxypropylcarbamate], the Ki in experiment [1] (setting [3]) was less than 1 nM. Further, the IC50 in experiment [2] (setting [4]) is not above 100 nM.
Turning to `CC(C)(C)OC(=O)CNc1cccc(S(=O)(=O)N(CC(O)C(Cc2ccccc2)NC(=O)OC2COC3OCCC23)OC2CCCC2)c1` (mixture of isomers) [Compound 30, tert-butyl 2-(3-[[(2R,3S)-3-([(3R,3aS,6aR)hexahydrofuro[2,3-b]furan-3-yloxy]carbonylamino)-2-hydroxy-4-phenylbutyl](cyclopentyloxy)amino]sulfonylanilino)acetate and tert-butyl 2-(3-[[(2R,3S)-3-([(3S,3aR,6aS)hexahydrofuro[2,3-b]furan-3-yloxy]carbonylamino)-2-hydroxy-4-phenylbutyl](cyclopentyloxy)amino]sulfonylanilino)acetate], the Ki in experiment [1] (setting [3]) is less than 1 nM. The concentration for half-maximal inhibition (IC50) in experiment [2] (setting [4]) lay in the range of 100 to 500 nM.
With `O=C(N[C@@H](Cc1ccccc1)[C@H](O)CN(OC1CCCC1)S(=O)(=O)c1ccc2nccnc2c1)O[C@H]1CO[C@H]2OCC[C@H]21` [Compound 90], in experiment [1] (setting [3]), the Ki is less than 1 nM. Further, the 50% inhibitory concentration (IC50) in experiment [2] (setting [4]) is not above 100 nM.
As to `NC(=O)c1cccc(S(=O)(=O)N(C[C@@H](O)[C@H](Cc2ccccc2)NC(=O)O[C@H]2CO[C@H]3OCC[C@H]32)OC2CCCC2)c1` [Example 173, (3R,3aS,6aR)hexahydrofuro[2,3-b]furan-3-yl N-(1S,2R)-3[[(3-carbamoylphenyl)sulfonyl](cyclopentyloxy)amino]-1-benzyl-2-hydroxypropyl carbamate], the inhibitory constant (Ki) in experiment [1] (setting [3]) is less than 1 nM. Besides, the half-maximal inhibitory concentration (IC50) in experiment [2] (setting [4]) was not above 100 nM.
For `O=C(N[C@@H](Cc1ccccc1)[C@H](O)CN(OC1CCCC1)S(=O)(=O)c1ccc2[nH]ncc2c1)O[C@H]1CCOC1` [Compound 56, (3S)Tetrahydro-3-furanyl N-(1S,2R)-1-benzyl-3-[(cyclopentyloxy)(1H-indazol-5-ylsulfonyl)amino]-2-hydroxypropylcarbamate], in that order: less than 1 nM and 100 to 500 nM.
`CC(C)ON(CC(O)C(Cc1ccccc1)NC(=O)OC1COC2OCCC12)S(=O)(=O)c1ccc2nc(NS(C)(=O)=O)n(Cc3ccccc3)c2c1` (stereo not shown) [Compound 118]: the Ki in experiment [1] (setting [3]) is more than 100 nM. Besides, in experiment [2] (setting [4]), the IC50 fell in the range of 500 to 1000 nM.
On to `COc1ccc(S(=O)(=O)N(C[C@@H](O)[C@H](Cc2ccccc2)NC(=O)OC(C)(C)C)OCC(C)C)cc1` [Compound 22, tert-butyl N-((1S,2R)-1-benzyl-2-hydroxy-3-isobutoxy[(4-methoxyphenyl)sulfonyl]aminopropyl)carbamate], for which the Ki in experiment [1] was 1 to 10 nM. The IC50 in experiment [2] (setting [4]) is more than 1000 nM.
`CN(C)C(=O)Nc1nc2cc(S(=O)(=O)N(C[C@@H](O)[C@H](Cc3ccccc3)NC(=O)OC(C)(C)C)OC3CCCC3)ccc2[nH]1` [Compound 14, Tert-butyl N-(1S,2R)-1-benzyl-3-[(cyclopentyloxy)(2-[(dimethylamino-carbonyl)amino]-1H-benzimidazol-5-ylsulfonyl)amino]-2-hydroxypropylcarbamate]: the Ki in experiment [1] (setting [3]) was less than 1 nM. Moreover, the IC50 in experiment [2] (setting [4]) is 100 to 500 nM.
For `COc1ccc(S(=O)(=O)N(C[C@@H](O)[C@H](Cc2ccccc2)NC(=O)c2ccccc2C)OC2CCCC2)cc1` [Compound 26, N^1-((1S,2R)-1-benzyl-3-(cyclopentyloxy)[(4-methoxyphenyl)sulfonyl]amino-2-hydroxypropyl)-2-methylbenzamide], the Ki in experiment [1] (setting [3]) lay within 1 to 10 nM. For the same molecule, the IC50 in experiment [2] (setting [4]) is more than 1000 nM.
In the case of `COc1ccc(S(=O)(=O)N(C[C@@H](O)[C@H](Cc2ccccc2)NC(=O)c2cccc(O)c2C)OC2CCOCC2)cc1` [Compound 75, N-(1S,2R)-1-benzyl-2-hydroxy-3-[[(4-methoxyphenyl)sulfonyl](tetrahydro-2H-pyran-4-yloxy)amino]propyl-3-hydroxy-2-methylbenzamide], in experiment [1] (setting [3]), the inhibitory constant (Ki) was less than 1 nM. Besides, the IC50 in experiment [2] (setting [4]) is more than 500 nM.
Take `COc1ccc(S(=O)(=O)N(C[C@@H](O)[C@H](Cc2ccccc2)NC(=O)OCc2ccccc2)OC2CCCC2)cc1` [Compound 24, Phenylmethyl N-((1S,2R)-1-benzyl-3-(cyclopentyloxy)[(4-methoxyphenyl)sulfonyl]amino-2-hydroxypropyl)carbamate]: in experiment [1] (setting [3]), the inhibition constant (Ki) was less than 1 nM. Further, the half-inhibitory concentration (IC50) in experiment [2] (setting [4]) is more than 1000 nM.
For `COC(=O)Nc1nc2cc(S(=O)(=O)N(C[C@@H](O)[C@H](Cc3ccccc3)NC(=O)O[C@H]3CCOC3)OC3CCCC3)ccc2[nH]1` [Compound 53, (3S)Tetrahydro-3-furanyl N-(1S,2R)-1-benzyl-3-[(cyclopentyloxy)(2-[(methoxycarbonyl)amino]-1H-benzimidazol-5-ylsulfonyl)amino]-2-hydroxypropylcarbamate], in that order: less than 1 nM and not above 100 nM.
Regarding `CC(C)(C)ON(C[C@@H](O)[C@H](Cc1ccccc1)NC(=O)O[C@H]1CCOC1)S(=O)(=O)c1ccccc1` [Compound 111, (3S) Tetrahydro-3-furanyl-N-(1S,2R)-1-benzyl-3-(tertbutyloxy)[(phenyl)sulfonyl]amino-2-hydroxypropylcarbamate], in experiment [1] (setting [3]), the Ki is 1 to 10 nM. Also, in experiment [2] (setting [4]), the half-inhibitory concentration (IC50) was more than 1000 nM.
In experiment [1], `COc1ccc(S(=O)(=O)N(C[C@@H](O)[C@H](Cc2ccccc2)NC(=O)OC2CO[C@H]3OCC[C@@H]23)OC2CCCCC2)cc1` (stereo partly drawn) [Compound 134, (3R,3aS,6aR)hexahydrofuro[2,3-b]furan-3-yl N-((1S,2R)-1-benzyl-3-(cyclohexyloxy)[(4-methoxyphenyl)sulfonyl]amino-2-hydroxypropyl)carbamate] showed a Ki of less than 1 nM. In experiment [2] (setting [4]), the concentration for half-maximal inhibition (IC50) is not above 100 nM.
Consider `CN(C(=O)OC(C)(C)C)c1cccc(S(=O)(=O)N(C[C@@H](O)[C@H](Cc2ccccc2)NC(=O)O[C@H]2CO[C@H]3OCC[C@H]32)OC2CCCC2)c1` [Compound 128], for which the Ki in experiment [1] (setting [3]) is more than 100 nM. Moreover, the concentration for half-maximal inhibition (IC50) in experiment [2] (setting [4]) was more than 1000 nM.
`O=C(N[C@@H](Cc1ccccc1)[C@H](O)CN(OC1CCCC1)S(=O)(=O)c1ccc2cn[nH]c2c1)OC1COCOC1` [Compound 60, 1,3-Dioxan-5-yl N-(1S,2R)-1-benzyl-3-[(cyclopentyloxy)(1H-indazol-6-ylsulfonyl)amino]-2-hydroxypropylcarbamate]: the Ki in experiment [1] (setting [3]) is less than 1 nM. Besides, the concentration for half-maximal inhibition (IC50) in experiment [2] (setting [4]) lay within 100 to 500 nM.
Consider `CCC(CC)ON(C[C@@H](O)[C@H](Cc1ccccc1)NC(=O)O[C@H]1CO[C@H]2OCC[C@H]21)S(=O)(=O)c1cccc(N)c1` [Example 164, (3R,3aS,6aR)hexahydrofuro[2,3-b]furan-3-yl(1S,2R)-3-[[(3-aminophenyl)sulfonyl](1-ethylpropoxy)amino]-1-benzyl-2-hydroxypropylcarbamate], for which the inhibition constant Ki in experiment [1] (setting [3]) is less than 1 nM. The concentration for half-maximal inhibition (IC50) in experiment [2] (setting [4]) was not above 100 nM.
For `CON(C)C(=O)CNc1cccc(S(=O)(=O)N(CC(O)C(Cc2ccccc2)NC(=O)OC2COC3OCCC23)OC2CCCC2)c1` (mixture of isomers) [Compound 88, (3R,3aS,6aR)hexahydrofuro[2,3-b]furan-3-yl N-[(1S,2R)-1-benzyl-3-((cyclopentyloxy)[3-(2-[methoxy(methyl)amino]-2-oxoethylamino)phenyl]sulfonylamino)-2-hydroxypropyl]carbamate and (3S,3aR,6aS)hexahydrofuro[2,3-b]furan-3-yl N-[(1S,2R)-1-benzyl-3-((cyclopentyloxy)[3-(2[methoxy(methyl)amino]-2-oxoethylamino)phenyl]sulfonylamino)-2-hydroxypropyl]carbamate], in that order: less than 1 nM and not above 100 nM.
For `COc1ccc(S(=O)(=O)N(C[C@@H](O)[C@H](Cc2ccccc2)NC(=O)OC(C)(C)C)OCC2CCCCO2)cc1` (stereo partly drawn) [Compound 19, tert-butyl N-(1S,2R)-1-benzyl-2-hydroxy-3-[[(4-methoxyphenyl)sulfonyl](tetrahydro-2H-pyran-2-ylmethoxy)amino]propylcarbamate], in that order: 10 to 100 nM and more than 1000 nM.
For `COC(=O)Nc1nc2cc(S(=O)(=O)N(C[C@@H](O)[C@H](Cc3ccccc3)NC(=O)OC3CO[C@H]4OCC[C@@H]34)OC3CCCC3)ccc2[nH]1` (mixture of isomers) [Compound 54, (3aS,6aR)Hexahydrofuro[2,3-b]furan-3-yl N-(1S,2R)-1-benzyl-3-[(cyclopentyloxy)(2-[(methoxycarbonyl)amino]-1H benzimidazol-5-ylsulfonyl)amino]-2-hydroxypropylcarbamate], in that order: less than 1 nM and not above 100 nM.
Take `CC(C)(C)OC(=O)N[C@@H](Cc1ccccc1)[C@H](O)CN(OC1CCCC1)S(=O)(=O)c1ccc2[nH]c(NC(=O)CCCl)nc2c1` [Compound 105, Tert-butyl N-(1S,2R)-1-benzyl-3-[(cyclopentyloxy)(2-[(3-chloropropionyl)amino]-1H-benzimidazol-5-ylsulfonyl)amino]-2-hydroxypropylcarbamate]: in experiment [1] (setting [3]), the Ki was less than 1 nM. The half-maximal inhibitory concentration (IC50) in experiment [2] (setting [4]) was not above 100 nM.
With `CC(C)ON(C[C@@H](O)[C@H](Cc1ccccc1)NC(=O)OC(C)(C)C)S(=O)(=O)c1ccc2[nH]cnc2c1` [Compound 3], in experiment [1] (setting [3]), the inhibition constant (Ki) lay within 10 to 100 nM. Further, in experiment [2] (setting [4]), the half-inhibitory concentration (IC50) is more than 1000 nM.

The values are drawn from patent publication US20040097594A1 (priority 1998, published 2004).
